In patent US5047414A, “2-(aminoalkylthio)methyl-1,4-dihydropyridine, a method for the preparation thereof and pharmaceutical compositions containing them” (Boehringer Biochemia Robin S.p.A., priority 1986, dated 1991):
Read-outs that look alike come from different tables or passages of the source.

Key:
[1] = in vivo; settings: mouse
[2] = test system: mice; experiment: acute toxicity in mice (LD50, os and i.p.)
[3] = test system: conscious SH rats; experiment: antihypertensive activity, oral, in conscious SH rats (mean blood pressure); assay type: in vivo; settings: for duration of antihypertensive effect (in words): SH rats; for decrease of the mean blood pressure (--BP), maximum / antihypertensive activity: conscious SH rats, oral; for decrease of the mean blood pressure (--BP), maximum: 1.6 mg/kg
Experimental: The maximum hypotensive effect, proportional to the administered dose, takes place 5-7 hours after the administration and the blood pressure is maintained at the decreased level for further 4-5 hours, at least. […]
Dosages such as 0.2-0.4 mg/Kg are sufficient to stabilize gradually the mean B.P. to lower level for a 24 hrs period. The drop-out of the pharmacological treatment is not combined with an acute hypertensive rebound effect but in the following 2-3 days the mean blood pressure gradually rises to the initial values.

[4] = test system: beagle dogs; experiment: tolerability in male and female beagle dogs, oral bolus administration; settings: 1.5 mg/kg/day
[5] = test system: conscious SH rats; settings: in the same experimental models; cited from earlier work
[6] = test system: K^+ -depolarized rat aorta strips; experiment: inhibition of contractile responses to increasing Ca++ concentration in K+ depolarized rat aorta strips
[7] = test system: beagle dogs; settings: dog, in vivo

SMILES	LD50 ([1]; ip) [mg/kg]	LD50 ([1]; po) [mg/kg]	also measured
CCOC(=O)C1=C(CSCCN)NC(C)=C(C(=O)OCCN(C)Cc2ccccc2)C1c1cccc([N+](=O)[O-])c1 (centres unmarked) [Compound 23]	32	91	
CCOC(=O)C1=C(CSCCN)NC(C)=C(C(=O)OC)C1c1cccc(C(F)(F)F)c1 (centres unmarked) [Compound 9]	23	40	
CCCCNCCSCC1=C(C(=O)OCC)C(c2cccc([N+](=O)[O-])c2)C(C(=O)OC)=C(C)N1 (centres unmarked) [Compound 14]		23	LD50 in mice, i.p. ([2]; mice, i.p.): 12 mg/kg
CCOC(=O)C1=C(CSCCN)NC(C)=C(C(=O)OC)C1c1ccccc1SC (centres unmarked) [Compound 8]	5	8	
CCOC(=O)C1=C(CSCCN)NC(C)=C(C(=O)OC)C1c1cccc([N+](=O)[O-])c1 (racemic) [Compound 11, 2-(2-aminoethylthio)methyl-3-ethoxycarbonyl-5-methoxycarbonyl-4-(m-nitrophenyl)-6-methyl-1,4-dihydropyridine]	22	52	duration of antihypertensive effect (in words) [3]: long lasting effects; decrease of the mean blood pressure (--BP), maximum [3]: higher than 85 mmHg; death of dogs [4]: died after three days treatment
CCOC(=O)C1=C(CSCCN)NC(C)=C(C(=O)OC)C1c1cccc(Cl)c1 (centres unmarked) [Compound 7]	23	40	decrease of the mean blood pressure (--BP), maximum [3]: higher than 85 mmHg
CCOC(=O)C1=C(C)NC(CSCCNCCC#N)=C(C(=O)OCC)C1c1cccc([N+](=O)[O-])c1 (centres unmarked) [Compound 19]	54	95	
CCOC(=O)C1=C(CSCCN)NC(C)=C(C(=O)OC)C1c1cccc(C#N)c1 (centres unmarked) [Compound 28]	43	34	
CCOC(=O)C1=C(C)NC(CSCC(N)C(=O)OCC)=C(C(=O)OCC)C1c1cccc([N+](=O)[O-])c1 (centres unmarked) [Compound 32]	354	763	
NNc1nncc2ccccc12 [hydralazine]			reflex tachicardia (other antihypertensive agents) [5]: often observed
CCOC(=O)C1=C(CSCCN)NC(C)=C(C(=O)OC)C1c1ccc(F)cc1 (centres unmarked) [Compound 27]	28	46	
COC(=O)C1=C(C)NC(C)=C(C(=O)OC)C1c1ccccc1[N+](=O)[O-] [nifedipine]			dependence of inhibition on incubation time [6]: not related to the incubation time
CCOC(=O)C1=C(C)NC(CSCCN)=C(C(=O)OCC)C1c1ccccc1C(F)(F)F (centres unmarked) [Compound 3]	5	9	
CCOC(=O)C1=C(CSCCN)NC(C)=C(C(=O)OC)C1c1cccc([N+](=O)[O-])c1 (centres unmarked) [Compound 13]	8	21	
CCOC(=O)C1=C(CSCCCN)NC(C)=C(C(=O)OC)C1c1cccc([N+](=O)[O-])c1 (centres unmarked) [Compound 17]	16	22	
CCOC(=O)C1=C(CSCCCCN)NC(C)=C(C(=O)OC)C1c1cccc([N+](=O)[O-])c1 (centres unmarked) [Compound 18]	4	11	
CCOC(=O)C1=C(CSCC(N)c2ccccc2)NC(C)=C(C(=O)OC)C1c1cccc([N+](=O)[O-])c1 (centres unmarked) [Compound 29]	46	77	
CCOC(=O)C1=C(CSCC2CCCN2)NC(C)=C(C(=O)OC)C1c1cccc([N+](=O)[O-])c1 (centres unmarked) [Compound 16c]			LD50 in mice, i.p. ([2]; mouse, in vivo, ip): 27 mg/kg; LD50 in mice, OS ([2]; mouse, in vivo, po): 55 mg/kg
CCOC(=O)C1=C(CSCCNC=O)NC(C)=C(C(=O)OC)C1c1ccccc1SC (centres unmarked) [N-formylation of compound 8]		90	
CCOC(=O)C1=C(CSCCN)NC(C)=C(C#N)C1c1cccc([N+](=O)[O-])c1 (centres unmarked) [Compound 22]	82	611	

SMILES	LD50 ([1]; ip) [mg/kg]	LD50 ([1]; po) [mg/kg]	also measured
CCOC(=O)C1=C(CSCCN)NC(C)=C(C(=O)OC)C1c1cccc(OC)c1 (centres unmarked) [Compound 26]	59	82	
COC(=O)C1=C(C)NC(CSCCN)=C(C(=O)OC)C1c1cccc([N+](=O)[O-])c1 (centres unmarked) [Compound 25]	25	53	
CCOC(=O)C1=C(CSCCNC(C)=O)NC(C)=C(C(=O)OC)C1c1cccc([N+](=O)[O-])c1 (racemic) [rac 2-acetylamino ethyl-thio-methyl, reference compound]			duration of antihypertensive effect (in words) [3]: shorter lasting antihypertensive effect
CCOC(=O)C1=C(CSCCN(C)C)NC(C)=C(C(=O)OC)C1c1cccc([N+](=O)[O-])c1 (centres unmarked) [Compound 12]	25	38	decrease of the mean blood pressure (--BP), maximum [3]: higher than 85 mmHg
CCOC(=O)C1=C(CSCCN)NC(C)=C(C(=O)OC(C)C)C1c1cccc([N+](=O)[O-])c1 (centres unmarked) [Compound 24]	25	53	
CCCCNCCSCC1=C(C(=O)OCC)C(c2cccc([N+](=O)[O-])c2)C(C(=O)OC)=C(C)N1 (centres unmarked) [Compound 15]			LD50 in mice, i.p. ([2]; mice, i.p.): 39 mg/kg; LD50 in mice, OS ([2]; mice, oral (os)): 40 mg/kg; death of dogs [4]: died after three days treatment
CCOC(=O)C1=C(CSCCNCCC#N)NC(C)=C(C(=O)OC)C1c1cccc([N+](=O)[O-])c1 (centres unmarked) [Compound 20, 2-[2-[N-(2-cyanoethyl)aminoethyl]thio]methyl-3-ethoxycarbonyl-5-methoxycarbonyl-4-(m-nitrophenyl)-6-methyl-1,4-dihydropyridine]	35	63	
CCOC(=O)C1=C(C)NC(CSCCN)=C(C(=O)OCC)C1c1ccccc1Cl (centres unmarked) [Compound 5]	9	12	decrease of the mean blood pressure (--BP), maximum [3]: higher than 85 mmHg
CCOC(=O)C1=C(CSCC(N)CO)NC(C)=C(C(=O)OC)C1c1cccc([N+](=O)[O-])c1 (centres unmarked) [Compound 31]	87	371	
CCOC(=O)C1=C(CSCC2CCCN2)NC(C)=C(C(=O)OC)C1c1cccc([N+](=O)[O-])c1 (centres unmarked) [Compound 16a]			LD50 in mice, i.p. ([2]; mouse, in vivo, ip): 7 mg/kg; LD50 in mice, OS ([2]; mouse, in vivo, po): 17 mg/kg
CCOC(=O)C1=C(CSCCN)NC(C)=C(C(=O)OC)C1c1ccccc1C(F)(F)F (centres unmarked) [Compound 2]	2	2	decrease of the mean blood pressure (--BP), maximum [3]: higher than 85 mmHg
CCOC(=O)C1=C(CSCCN)NC(C)=C(C(=O)OC)C1c1ccccc1Cl (centres unmarked) [Compound 6, 2-(2-aminoethylthio)methyl-3-ethoxycarbonyl-5-methoxycarbonyl-4-(2-chlorophenyl)-6-methyl-1,4-dihydropyridine]	4	5	decrease of the mean blood pressure (--BP), maximum [3]: higher than 85 mmHg
CCOC(=O)C1=C(CSCCN)NC(C)=C([N+](=O)[O-])C1c1cccc([N+](=O)[O-])c1 (centres unmarked) [Compound 21]	108	451	
CCOC(=O)C1=C(CSCC2CCCN2)NC(C)=C(C(=O)OC)C1c1cccc([N+](=O)[O-])c1 (centres unmarked) [Compound 16b]			LD50 in mice, i.p. ([2]; mouse, in vivo, ip): 25 mg/kg; LD50 in mice, OS ([2]; mouse, in vivo, po): 39 mg/kg
CCOC(=O)C1=C(CSCCN)NC(C)=C(C(=O)OC)C1c1ccccc1[N+](=O)[O-] (centres unmarked) [Compound 4]	2	3	
CCOC(=O)C1=C(CSCC(C)N)NC(C)=C(C(=O)OC)C1c1cccc([N+](=O)[O-])c1 (centres unmarked) [Compound 30]	50	42	
CCOC(=O)C1=C(CSCC2CCCN2)NC(C)=C(C(=O)OC)C1c1cccc([N+](=O)[O-])c1 (centres unmarked) [Compound 16d]			LD50 in mice, i.p. ([2]; mouse, in vivo, ip): 1000 mg/kg; LD50 in mice, OS ([2]; mouse, in vivo, po): 1000 mg/kg; antihypertensive activity ([3]; 3.2 mg/kg): practically inactive
CCOC(=O)C1=C(CSCCNC=O)NC(C)=C(C(=O)OC)C1c1cccc([N+](=O)[O-])c1 (centres unmarked) [Example 3, 2-(2-formylaminoethylthio)-methyl-3-ethoxycarbonyl-5-methoxycarbonyl-4-(m-nitrophenyl)-6-methyl-1.4-dihydropyridine]	150	200	acute toxicity (in words) ([2]; mice where stated): low oral acute toxicity; duration of antihypertensive effect (in words) [3]: long lasting effects; antihypertensive activity ([3]; once daily, very low doses (for ex. 0.2 mg/kg/os)): pronounced and long lasting antihypertensive activity; death of dogs [7]: do not die after two weeks treatment; tolerability in dogs [7]: high tolerability
CCOC(=O)C1=C(CSCCN)NC(C)=C(C(=O)OC)C1c1ccccc1 (centres unmarked) [Compound 1]	31	33	
CCOC(=O)C1=C(C)NC(CSCCN)=C(C(=O)OCC)C1c1cccc([N+](=O)[O-])c1 (centres unmarked) [Compound 10]	20	21	decrease of the mean blood pressure (--BP), maximum [3]: higher than 85 mmHg
